Measured values reported in patent US9051310B2, “Nicotinamide derivative or salt thereof” (FUJIFILM Corporation, priority 2011, dated 2015).

molecular target: T1, glutathione S-transferase (GST)-linked full-length human Syk protein (Homo sapiens, UniProt P43405); test: Syk enzyme assay; format: biochemical; details: 0.83 nM Syk, time-resolved fluorescence; read-out: IC50 of Syk-inhibitory activity
T1 construct: glutathione S-transferase (GST)-linked full-length human Syk protein; purchased Carna Biosciences; host or cells: Baculovirus expression system
How it was run: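 Phosphotyrosine on a biotin-peptide substrate (0.5 μM) was read by time-resolved fluorescence at 615 and 665 nm with Eu-anti-pTyr antibody and APC-streptavidin after 1 h EDTA stop.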

SMILES	IC50
CC(C)c1ccc(Nc2nc(N[C@@H]3CCCC[C@@H]3N)c(F)cc2C(N)=O)cc1 [Example 2-448, 6-(((1R,2S)-2-aminocyclohexyl)amino)-5-fluoro-2-((4-isopropylphenyl)amino) nicotinamide]	10 to 50 nM
CCC[C@@H](Nc1nc(Nc2ccc3c(c2)c(N(C)CCOC)nn3C)c(C(N)=O)cc1F)[C@H](C)N [Example 2-459, 6-(((2S,3R)-2-aminohexan-3-yl)amino)-5-fluoro-2-((3-((2-methoxyethyl)(methyl)amino)-1-methyl-1H-indazol-5-yl)amino)nicotinamide]	10 to 50 nM
CC[C@H](N)[C@@H](C)Nc1nc(Nc2ccc3c(c2)c(N(C)CCOC)nn3C)c(C(N)=O)cc1F [Example 2-461, 6-(((2R,3S)-3-aminopentan-2-yl)amino)-5-fluoro-2-((3-((2-methoxyethyl)(methyl)amino)-1-methyl-1H-indazol-5-yl)amino)nicotinamide]	10 to 50 nM
COCCNc1nn(C)c2ccc(Nc3nc(N[C@@H]4CCCC[C@@H]4N)c(F)cc3C(N)=O)cc12 [Example 2-462, 6-(((1R,2S)-2-aminocyclohexyl)amino)-5-fluoro-2-((3-((2-methoxyethyl)amino)-1-methyl-1H-indazol-5-yl)amino)nicotinamide]	10 to 50 nM
CC[C@@H](Nc1nc(Nc2ccc3c(c2)c(NCCOC)nn3C)c(C(N)=O)cc1F)[C@H](C)N [Example 2-463, 6-(((2S,3R)-2-aminopentan-3-yl)amino)-5-fluoro-2-((3-((2-methoxyethyl)amino)-1-methyl-1H-indazol-5-yl)amino)nicotinamide]	10 to 50 nM
COCCNc1nn(C)c2ccc(Nc3nc(N[C@H](C4CC4)[C@H](C)N)c(F)cc3C(N)=O)cc12 [Example 2-464, 6-(((1R,2S)-2-amino-1-cyclopropylpropyl)amino)-5-fluoro-2-((3-((2-methoxyethyl)amino)-1-methyl-1H-indazol-5-yl)amino)nicotinamide]	10 to 50 nM
Cc1ncc(Nc2nc(N[C@@H](CN)Cn3cccn3)c(F)cc2C(N)=O)cc1F [Example 2-469, (S)-6-((1-amino-3-(1H-pyrazol-1-yl)propan-2-yl)amino)-5-fluoro-2-((5-fluoro-6-methylpyridin-3-yl)amino)nicotinamide]	10 to 50 nM
CC[C@H](N)[C@H](Nc1nc(Nc2cccnc2)c(C(N)=O)cc1F)C1CC1 [Example 2-485, 6-(((1R,2S)-2-amino-1-cyclopropylbutyl)amino)-5-fluoro-2-(pyridin-3-ylamino)nicotinamide]	10 to 50 nM
CC[C@H](N)[C@H](Nc1nc(Nc2cncc(F)c2)c(C(N)=O)cc1F)C1CC1 [Example 2-486, 6-(((1R,2S)-2-amino-1-cyclopropylbutyl)amino)-5-fluoro-2-((5-fluoropyridin-3-yl)amino)nicotinamide]	10 to 50 nM
CC[C@@H](Nc1nc(Nc2ccc3[nH]nc(NC)c3c2)c(C(N)=O)cc1F)[C@H](C)N [Example 2-489, 6-(((2S,3R)-2-aminopentan-3-yl)amino)-5-fluoro-2-((3-(methylamino)-1H-indazol-5-yl)amino)nicotinamide]	10 to 50 nM
CNc1n[nH]c2ccc(Nc3nc(N[C@H](C4CC4)[C@H](C)N)c(F)cc3C(N)=O)cc12 [Example 2-490, 6-(((1R,2S)-2-amino-1-cyclopropylpropyl)amino)-5-fluoro-2-((3-(methylamino)-1H-indazol-5-yl)amino)nicotinamide]	10 to 50 nM
CC[C@H](N)[C@@H](C)Nc1nc(Nc2ccc3[nH]nc(NC)c3c2)c(C(N)=O)cc1F [Example 2-491, 6-(((2R,3S)-3-aminopentan-2-yl)amino)-5-fluoro-2-((3-(methylamino)-1H-indazol-5-yl)amino)nicotinamide]	10 to 50 nM
CN(C)c1n[nH]c2ccc(Nc3nc(N[C@@H]4CCCC[C@@H]4N)c(F)cc3C(N)=O)cc12 [Example 2-492, 6-(((1R,2S)-2-aminocyclohexyl)amino)-2-((3-(dimethylamino)-1H-indazol-5-yl)amino)-5-fluoronicotinamide]	< 10 nM
CC[C@@H](Nc1nc(Nc2ccc3[nH]nc(N(C)C)c3c2)c(C(N)=O)cc1F)[C@H](C)N [Example 2-493, 6-(((2S,3R)-2-aminopentan-3-yl)amino)-2-((3-(dimethylamino)-1H-indazol-5-yl)amino)-5-fluoronicotinamide]	< 10 nM
C[C@H](N)[C@H](Nc1nc(Nc2ccc3[nH]nc(N(C)C)c3c2)c(C(N)=O)cc1F)C1CC1 [Example 2-494, 6-(((1R,2S)-2-amino-1-cyclopropylpropyl)amino)-2-((3-(dimethylamino)-1H-indazol-5-yl)amino)-5-fluoronicotinamide]	< 10 nM
CC[C@H](N)[C@@H](C)Nc1nc(Nc2ccc3[nH]nc(N(C)C)c3c2)c(C(N)=O)cc1F [Example 2-495, 6-(((2R,3S)-3-aminopentan-2-yl)amino)-2-((3-(dimethylamino)-1H-indazol-5-yl)amino)-5-fluoronicotinamide]	< 10 nM
CC[C@@H](Nc1nc(Nc2ccc3c(c2)c(NC)nn3C)c(C(N)=O)cc1F)[C@H](C)N [Example 2-497, 6-(((2S,3R)-2-aminopentan-3-yl)amino)-5-fluoro-2-((1-methyl-3-(methylamino)-1H-indazol-5-yl)amino)nicotinamide]	50 to 100 nM
CNc1nn(C)c2ccc(Nc3nc(N[C@H](C4CC4)[C@H](C)N)c(F)cc3C(N)=O)cc12 [Example 2-498, 6-(((1R,2S)-2-amino-1-cyclopropylpropyl)amino)-5-fluoro-2-((1-methyl-3-(methylamino)-1H-indazol-5-yl)amino)nicotinamide]	< 10 nM
CC[C@H](N)[C@@H](C)Nc1nc(Nc2ccc3c(c2)c(NC)nn3C)c(C(N)=O)cc1F [Example 2-499, 6-(((2R,3S)-3-aminopentan-2-yl)amino)-5-fluoro-2-((1-methyl-3-(methylamino)-1H-indazol-5-yl)amino)nicotinamide]	10 to 50 nM
COCCn1nc(N(C)C)c2cc(Nc3nc(N[C@@H]4CCCC[C@@H]4N)c(F)cc3C(N)=O)ccc21 [Example 2-500, 6-(((1R,2S)-2-aminocyclohexyl)amino)-2-((3-(dimethylamino)-1-(2-methoxyethyl)-1H-indazol-5-yl)amino)-5-fluoronicotinamide]	10 to 50 nM

The remaining lines, values ahead:

IC50	SMILES
< 10 nM	CC(C)Oc1cccc(Nc2nc(N[C@@H]3CCCC[C@@H]3N)c(F)cc2C(N)=O)c1 [Example 2-446, 6-(((1R,2S)-2-aminocyclohexyl)amino)-5-fluoro-2-((3-isopropoxyphenyl)amino) nicotinamide]
< 10 nM	NC(=O)c1cc(F)c(N[C@@H]2CCCC[C@@H]2N)nc1Nc1ccc(F)c(F)c1 [Example 2-447, 6-(((1R,2S)-2-aminocyclohexyl)amino)-2-((3,4-difluorophenyl)amino)-5-fluoronicotinamide]
< 10 nM	CC(C)Oc1ccc(Nc2nc(N[C@@H]3CCCC[C@@H]3N)c(F)cc2C(N)=O)cc1 [Example 2-449, 6-(((1R,2S)-2-aminocyclohexyl)amino)-5-fluoro-2-((4-isopropoxyphenyl)amino) nicotinamide]
< 10 nM	CCc1cccc(Nc2nc(N[C@@H]3CCCC[C@@H]3N)c(F)cc2C(N)=O)c1 [Example 2-450, 6-(((1R,2S)-2-aminocyclohexyl)amino)-2-((3-ethylphenyl)amino)-5-fluoronicotinamide]
< 10 nM	C[C@H](N)[C@H](Nc1nc(Nc2cnc(N3CCOCC3)c(F)c2)c(C(N)=O)cc1F)c1cccc(F)c1 [Example 2-451, 6-(((1R,2S)-2-amino-1-(3-fluorophenyl)propyl)amino)-5-fluoro-2-((5-fluoro-6-morpholinopyridin-3-yl)amino)nicotinamide]
< 10 nM	C[C@H](N)[C@H](Nc1nc(Nc2ccc3c(c2)c(N(C)C)nn3C)c(C(N)=O)cc1F)c1cccc(F)c1 [Example 2-452, 6-(((1R,2S)-2-amino-1-(3-fluorophenyl)propyl)amino)-2-((3-(dimethylamino)-1-methyl-1H-indazol-5-yl)amino)-5-fluoronicotinamide]
< 10 nM	Cc1ncc(Nc2nc(N[C@H](c3cccc(F)c3)[C@H](C)N)c(F)cc2C(N)=O)cc1F [Example 2-453, 6-(((1R,2S)-2-amino-1-(3-fluorophenyl)propyl)amino)-5-fluoro-2-((5-fluoro-6-methylpyridin-3-yl)amino)nicotinamide]
< 10 nM	COCCn1ncc2cc(Nc3nc(N[C@H](c4ccc(OC)cc4)[C@H](C)N)c(F)cc3C(N)=O)ccc21 [Example 2-455, 6-(((1R,2S)-2-amino-1-(4-methoxyphenyl)propyl)amino)-5-fluoro-2-((1-(2-methoxyethyl)-1H-indazol-5-yl)amino)nicotinamide]
< 10 nM	COCCN(C)c1nn(C)c2ccc(Nc3nc(N[C@@H]4CCOC[C@@H]4N)c(F)cc3C(N)=O)cc12 [Example 2-457, 6-(((3R,4R)-3-aminotetrahydro-2H-pyran-4-yl)amino)-5-fluoro-2-((3-((2-methoxyethyl)(methyl)amino)-1-methyl-1H-indazol-5-yl)amino)nicotinamide]
< 10 nM	CC[C@@H](Nc1nc(Nc2ccc3c(c2)c(N(C)CCOC)nn3C)c(C(N)=O)cc1F)[C@H](C)N [Example 2-458, 6-(((2S,3R)-2-aminopentan-3-yl)amino)-5-fluoro-2-((3-((2-methoxyethyl)(methyl)amino)-1-methyl-1H-indazol-5-yl)amino)nicotinamide]
< 10 nM	COCCN(C)c1nn(C)c2ccc(Nc3nc(N[C@H](C4CC4)[C@H](C)N)c(F)cc3C(N)=O)cc12 [Example 2-460, 6-(((1R,2S)-2-amino-1-cyclopropylpropyl)amino)-5-fluoro-2-((3-((2-methoxyethyl)(methyl)amino)-1-methyl-1H-indazol-5-yl)amino)nicotinamide]
< 10 nM	CNc1n[nH]c2ccc(Nc3nc(N[C@@H]4CCCC[C@@H]4N)c(F)cc3C(N)=O)cc12 [Example 2-488, 6-(((1R,2S)-2-aminocyclohexyl)amino)-5-fluoro-2-((3-(methylamino)-1H-indazol-5-yl)amino)nicotinamide]
